Columns and labels:
SMARCA2 [1] = molecular target: T1, SMARCA2 (Homo sapiens, UniProt P51531); test: MSD SMARCA2 degradation in A549 cell line; format: cell-based; settings: 24 h; for Dmax: A549, A549 cells; for DC50: A549 cells, read-out: SMARCA2 MSD A549 degradation 24 h: Average external-Abs DC50
Description: Cells were seeded into 96-well plates (A549 cells: 2×10^4 cells/well/100 ul media) abd incubated overnight. The next day, 200 nl compound were added into the intermediate plate with Echo (Labcyte 550) from source plate containing a 3-fold serial dilution from top concentration of 1 mM. The culture medium was changed with 80 ul of fresh medium and 80 ul of 2× compound solution was added into the well to make a final concentration of 1000 nM, 333.3 nM, 111.1 nM, 37.04 nM, 12.35 nM, 4.115 nM, 1.372 nM, 0.457 nM, 0.152 nM and 0 nM (DMSO). The wells were mixed and then incubated for 24 hours. The media was aspirated from the cultures and 60 ul pre-chilled PIPA lysis buffer (Boston BioProducts BP-115D) with protease/phosphatase inhibitor (Roche 05892791001/Roche 04906837001) was added into the well to lyze the cells for 20 minutes at 4° C. The MSD plate (L15XA) was coated with 40 ul cell lysate and incubated at 4° C. overnight. The next day, the plate was washed three times with TBST (CST #9997S), 150 ul/well. The MSD plates was blocked with 150 ul blocking buffer per well and shaked for 1 hr at RT, 600 rpm. The blocking buffer was 3% Blocker A (MSD, R93BA-4) in TBST. The MSD plate was washed three times with 150 ul/well of TBST and 25 ul/well of detection antibody (Rabbit anti-SMARCA2/BRM antibody, 100 μg/ml, ab223735) was added at final concentration of 1 ug/ml diluted in 1% Blocking buffer and shaken for 1 hour at RT, 600 rpm. The MSD plate was washed three times with 150 ul/well of TBST and 25 ul/well of SULFO-TAG anti-rabbit antibody (MSD, R32AB-1) was added at final concentration of 1 ug/ml diluted in 1% Blocking buffer and shaken for 1 hour at RT, 600 rpm. The MSD plate was washed three times with 150 ul/well of TBST and 150 ul/well of 2×MSD reading buffer diluted from 4× (MSD, R92TC-2) with water was added. Lastly, the MSD instrument was read.
The letter codes for the percentage of SMARCA2 degradation after 24 hours (Dmax %) include: A (>90% degradation), B (>70-90% degradation), C (50-70% degradation), and D (<50% degradation).

SMARCA2 [2] = molecular target: T1, SMARCA2; test: MSD SMARCA2 degradation in NCI-H1299 cell line (24 h); format: cell-based; set-up: HC: NCI-H1299 cells treated with DMSO; host or cells: NCI-H1299; settings: for Dmax: NCI-H1299, NCI-H1299 cells; for DC50: NCI-H1299 cells, read-out: SMARCA2 MSD H1299 degradation 24 h: External Abs-DC50
In short: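 NCI-H1299 cells treated 24 h with a 3-fold, 9-point compound dilution series, then lysed in RIPA with protease inhibitor. SMARCA2 in lysate-coated MSD plates detected with rabbit anti-SMARCA2 (0.3 ug/ml) and SULFO-TAG secondary. Relative SMARCA2 level normalized between DMSO-treated H1299 cells and SMARCA2-negative A2780 cells; Dmax % binned A–D.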

T1 sequence (P51531 whole entry): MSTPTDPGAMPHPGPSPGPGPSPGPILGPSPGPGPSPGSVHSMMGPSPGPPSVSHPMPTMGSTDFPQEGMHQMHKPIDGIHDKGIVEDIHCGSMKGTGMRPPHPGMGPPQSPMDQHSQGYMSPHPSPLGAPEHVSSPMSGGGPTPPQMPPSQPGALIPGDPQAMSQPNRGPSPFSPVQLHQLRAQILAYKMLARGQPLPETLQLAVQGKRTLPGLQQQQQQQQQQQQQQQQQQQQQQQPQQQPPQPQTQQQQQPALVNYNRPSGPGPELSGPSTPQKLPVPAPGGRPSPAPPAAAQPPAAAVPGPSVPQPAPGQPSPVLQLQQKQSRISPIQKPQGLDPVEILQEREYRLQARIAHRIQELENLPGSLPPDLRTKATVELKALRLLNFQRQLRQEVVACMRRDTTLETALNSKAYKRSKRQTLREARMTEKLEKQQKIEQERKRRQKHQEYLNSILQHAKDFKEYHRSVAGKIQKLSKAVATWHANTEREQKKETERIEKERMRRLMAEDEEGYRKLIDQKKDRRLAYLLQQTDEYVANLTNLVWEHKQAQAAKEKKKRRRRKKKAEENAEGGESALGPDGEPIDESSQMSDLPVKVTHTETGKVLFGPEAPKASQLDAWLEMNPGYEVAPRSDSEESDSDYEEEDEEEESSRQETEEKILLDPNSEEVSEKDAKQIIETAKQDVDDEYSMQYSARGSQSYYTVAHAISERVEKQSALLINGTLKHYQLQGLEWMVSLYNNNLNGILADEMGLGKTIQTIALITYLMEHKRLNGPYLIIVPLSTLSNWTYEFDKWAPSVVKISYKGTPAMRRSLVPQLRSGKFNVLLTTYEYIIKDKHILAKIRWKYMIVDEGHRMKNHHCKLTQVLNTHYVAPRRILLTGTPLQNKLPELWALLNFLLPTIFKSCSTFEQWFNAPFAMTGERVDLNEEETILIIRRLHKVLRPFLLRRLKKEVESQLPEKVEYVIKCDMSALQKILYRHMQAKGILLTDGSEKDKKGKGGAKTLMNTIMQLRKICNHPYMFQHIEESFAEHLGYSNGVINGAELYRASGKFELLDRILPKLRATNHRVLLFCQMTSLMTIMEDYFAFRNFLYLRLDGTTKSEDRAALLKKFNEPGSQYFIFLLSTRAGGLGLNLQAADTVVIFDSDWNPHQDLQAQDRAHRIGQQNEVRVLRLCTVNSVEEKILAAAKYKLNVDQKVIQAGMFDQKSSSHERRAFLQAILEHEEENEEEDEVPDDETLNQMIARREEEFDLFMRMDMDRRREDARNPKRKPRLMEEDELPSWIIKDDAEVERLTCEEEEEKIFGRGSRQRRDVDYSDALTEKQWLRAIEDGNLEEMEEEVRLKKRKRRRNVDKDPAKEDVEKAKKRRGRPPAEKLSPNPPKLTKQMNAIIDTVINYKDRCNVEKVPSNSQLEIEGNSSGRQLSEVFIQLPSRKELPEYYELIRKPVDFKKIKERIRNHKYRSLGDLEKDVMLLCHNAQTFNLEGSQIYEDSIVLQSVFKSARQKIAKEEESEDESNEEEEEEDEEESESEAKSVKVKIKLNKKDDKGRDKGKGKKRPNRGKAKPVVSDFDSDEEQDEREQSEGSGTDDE

Compound	Dmax (SMARCA2 [1]) [%]	DC50 (SMARCA2 [1]) [nM]	Dmax (SMARCA2 [2]) [%]	DC50 (SMARCA2 [2]) [nM]
Cc1ncsc1-c1ccc(CNC(=O)[C@@H]2C[C@@H](O)CN2C(=O)[C@@H](NC(=O)[C@H]2CC[C@@H](CCCCCN3CCC(Cn4cc(-c5cc(-c6ccccc6O)nnc5N)cn4)CC3)CC2)C(C)(C)C)cc1 [I-377]	70 to 90	100 to 500		
Cc1ncsc1-c1ccc(CNC(=O)[C@@H]2C[C@@H](O)CN2C(=O)[C@@H](NC(=O)[C@H]2CC[C@@H](CN3CCC(c4cnc(N5C6CCC5CN(c5cc(-c7ccccc7O)nnc5N)C6)nc4)CC3)CC2)C(C)(C)C)cc1 [I-373]	> 90	100 to 500		
Cc1ncsc1-c1ccc(CNC(=O)[C@@H]2C[C@@H](O)CN2C(=O)[C@@H](NC(=O)[C@H]2CC3CCC2C[C@@H]3c2cnc(N3C4CCC3CN(c3cc(-c5ccccc5O)nnc3N)C4)nc2)C(C)(C)C)cc1 (some centres unmarked) [I-441]	> 90	100 to 500		
Cc1ncsc1-c1ccc(CNC(=O)[C@@H]2C[C@@H](O)CN2C(=O)[C@@H](NC(=O)CCN2CCC(Cn3cc(-c4cc(-c5ccccc5O)nnc4N)cn3)CC2)C(C)(C)C)cc1 [I-466]	< 50	> 1000		
Cc1ncsc1-c1ccc(CNC(=O)[C@@H]2C[C@@H](O)CN2C(=O)[C@@H](NC(=O)[C@H]2CC[C@@H](Cc3cnc(N4C5CCC4CN(c4cc(-c6ccccc6O)nnc4N)C5)nc3)CC2)C(C)(C)C)cc1 [I-367]	> 90	< 100		
Cc1ncsc1-c1ccc(CNC(=O)[C@@H]2C[C@@H](O)CN2C(=O)[C@@H](NC(=O)[C@H]2CC3(C[C@H](CN(C)Cc4cnc(N5C6CCC5CN(c5cc(-c7ccccc7O)nnc5N)C6)nc4)C3)C2)C(C)(C)C)cc1 (some centres unmarked) [I-417]	> 90	100 to 500		
CN(Cc1cccc(C#Cc2cc(NC(=O)Nc3cc(F)ncc3CO)ccn2)c1)C1CCN(Cc2cccc3c2n(C)c(=O)n3C2CCC(=O)NC2=O)CC1 (centres unmarked) [I-318]	< 50	> 1000		
Cn1c(=O)n(C2CCC(=O)NC2=O)c2ccc(CCCCCCCCCNCc3cccc(C#Cc4cc(NC(=O)Nc5cc(F)ncc5CO)ccn4)c3)cc21 (centres unmarked) [I-302, 1-(2-((3-(((9-(1-(2,6-dioxopiperidin-3-yl)-3-methyl-2-oxo-2,3-dihydro-1H-benzo[d]imidazol-5-yl)nonyl)amino)methyl)phenyl)ethynyl)pyridin-4-yl)-3-(2-fluoro-5-(hydroxymethyl)pyridin-4-yl)urea]	< 50	> 1000		
Cc1ncsc1-c1ccc(CNC(=O)[C@@H]2C[C@@H](O)CN2C(=O)[C@@H](NC(=O)[C@H]2CC[C@H](CN3CCC(c4cnc(N5C6CCC5CN(c5cc(-c7ccccc7O)nnc5N)C6)nc4)CC3)CC2)C(C)(C)C)c(C(F)(F)F)c1 [I-398]	50 to 70	501 to 1000		
Cc1ncsc1-c1ccc(CNC(=O)[C@@H]2C[C@@H](O)CN2C(=O)[C@@H](NC(=O)CCCN2CCC(c3ccc(C#Cc4cc(NC(=O)Nc5cc(F)ncc5CO)ccn4)cc3)CC2)C(C)(C)C)cc1 [I-501]	< 50	> 1000		
CN(Cc1ccc(C#Cc2cc(NC(=O)Nc3cc(F)ncc3CO)ccn2)cc1)C1CCN(Cc2cccc3c2n(C)c(=O)n3C2CCC(=O)NC2=O)CC1 (centres unmarked) [I-310]	< 50	> 1000		
Cn1c(=O)n(C2CCC(=O)NC2=O)c2ccc(CCc3cnc(N4C5CCC4CN(c4cc(-c6ccccc6O)nnc4N)C5)nc3)cc21 (centres unmarked) [I-186, 3-[5-[2-[2-[3-[3-amino-6-(2-hydroxyphenyl)pyridazin-4-yl]-3,8-diazabicyclo[3.2.1]octan-8-yl]pyrimidin-5-yl]ethyl]-3-methyl-2-oxo-benzimidazol-1-yl]piperidine-2,6-dione]			50 to 70	100 to 500
CN[C@@H](C)C(=O)N[C@H](C(=O)N1Cc2cc(OCCOCCOCCOCCOCCNC(=O)CCCCCCCCOc3ccnc(N4C[C@H]5C[C@@H]4CN5/C=C/C(=O)c4ccccc4O)c3)ccc2C[C@H]1C(=O)N[C@@H]1CCCc2ccccc21)C(C)(C)C [I-203]				> 1000
Cn1c(=O)n(C2CCC(=O)NC2=O)c2cccc(CCCOCCOCCOCCOCCN3CCN(Cc4ccc(-c5cc(-c6ccccc6O)nnc5N)cc4)CC3)c21 (centres unmarked) [I-133]			< 50	> 1000
Cc1ncsc1-c1ccc(CNC(=O)[C@@H]2C[C@@H](O)CN2C(=O)[C@@H](NC(=O)COCCOCCOCCOCCNC(=O)CCCCCCCCOc2ccc(N3C[C@H]4C[C@@H]3CN4/C=C/C(=O)c3ccccc3O)nc2)C(C)(C)C)cc1 [I-231]				> 1000
COc1cc(C(=O)NCCCCCCCCCN2CCN(Cc3ccc(-c4cc(-c5ccccc5O)nnc4N)cc3)CC2)ccc1NC(=O)[C@@H]1N[C@@H](CC(C)(C)C)[C@](C#N)(c2ccc(Cl)cc2F)[C@H]1c1cccc(Cl)c1F [I-233, (2R,3S,4R,5S)—N-[4-[9-[4-[[4-[3-amino-6-(2-hydroxyphenyl)pyridazin-4-yl]phenyl]methyl]piperazin-1-yl]nonylcarbamoyl]-2-methoxy-phenyl]-3-(3-chloro-2-fluoro-phenyl)-4-(4-chloro-2-fluoro-phenyl)-4-cyano-5-(2,2-dimethylpropyl)pyrrolidine-2-carboxamide]			< 50	> 1000
Cn1c(=O)n(C2CCC(=O)NC2=O)c2ccc(CN3CCC(c4cnc(N5C6CCC5CN(c5cc(-c7ccccc7O)nnc5N)C6)nc4)CC3)cc21 (centres unmarked) [I-196]			> 90	< 100

Results, then the compound that gave them:

Dmax (SMARCA2 [1]) [%]	DC50 (SMARCA2 [1]) [nM]	Dmax (SMARCA2 [2]) [%]	DC50 (SMARCA2 [2]) [nM]	Compound
		70 to 90	100 to 500	Cn1c(=O)n(C2CCC(=O)NC2=O)c2cccc(CCCCCN3CCC[C@@H](Cn4cc(-c5cc(-c6ccccc6O)nnc5N)cn4)C3)c21 (some centres unmarked) [I-190]
		70 to 90	< 100	Cn1c(=O)n(C2CCC(=O)NC2=O)c2cccc(CCCOCCCN3CCN(Cc4ccc(-c5cc(-c6ccccc6O)nnc5N)cc4)CC3)c21 (centres unmarked) [I-140]
		< 50	> 1000	Cn1c(=O)n(C2CCC(=O)NC2=O)c2ccc(C#CCOCCOCCN3CCN(Cc4ccc(-c5cc(-c6ccccc6O)nnc5N)cc4)CC3)cc21 (centres unmarked) [I-137]
		< 50	> 1000	Cn1c(=O)n(C2CCC(=O)NC2=O)c2ccc(C#CCCCc3cn(Cc4cccc(N5C[C@H]6C[C@@H]5CN6/C=C/C(=O)c5ccccc5O)n4)nn3)cc21 (some centres unmarked) [I-60]
			> 1000	Cn1c(=O)n(C2CCC(=O)NC2=O)c2ccc(CCCOCCOc3cccc(N4C[C@H]5C[C@@H]4CN5/C=C/C(=O)c4ccccc4O)n3)cc21 (stereo partly drawn) [I-31, 3-[5-[3-[2-[[6-[(1R,4R)-5-[(E)-3-(2-hydroxyphenyl)-3-oxo-prop-1-enyl]-2,5-diazabicyclo[2.2.1]heptan-2-yl]-2-pyridyl]oxy]ethoxy]propyl]-3-methyl-2-oxo-benzimidazol-1-yl]piperidine-2,6-dione]
		70 to 90	< 100	Cn1c(=O)n(C2CCC(=O)NC2=O)c2ccc(CCCCCCCN3CCC(Cn4cc(-c5cc(-c6ccccc6O)nnc5N)cn4)CC3)cc21 (centres unmarked) [I-146]
		70 to 90	100 to 500	CN(CC[C@@H]1CN(CCCc2cccc3c2n(C)c(=O)n3C2CCC(=O)NC2=O)CCO1)Cc1ccc(N2CCN(c3cc(-c4ccccc4O)nnc3N)CC2)cc1 (some centres unmarked) [I-111]
		< 50	> 1000	O=C1CCC(n2c(=O)n(CCCCc3cn(Cc4cccc(N5C[C@H]6C[C@@H]5CN6/C=C/C(=O)c5ccccc5O)n4)nn3)c3ccccc32)C(=O)N1 (some centres unmarked) [I-54]
		70 to 90	< 100	Cn1c(=O)n(C2CCC(=O)NC2=O)c2cccc(CCCO[C@H]3C[C@H](N(C)Cc4ccc(N5CCN(c6cc(-c7ccccc7O)nnc6N)CC5)cc4)C3)c21 (some centres unmarked) [I-121]
			> 1000	Cn1c(=O)n(C2CCC(=O)NC2=O)c2ccc(CCCOCCOCCOCCNC(=O)CCCCCCCCOc3ccnc(N4C[C@H]5C[C@@H]4CN5/C=C/C(=O)c4ccccc4O)c3)cc21 (some centres unmarked) [I-20]

Source: US12624044B2, “SMARCA degraders and uses thereof” (Kymera Therapeutics, Inc., priority 2019, dated 2026)
